According to ChEMBL document CHEMBL6083192, “Discovery of 1,2,4-Triazole-3-thione Derivatives as Potent and Selective DCN1 Inhibitors for Pathological Cardiac Fibrosis and Remodeling” (J Med Chem, 2024):

Target: DCN1-like protein 1/NEDD8-conjugating enzyme Ubc12 (Homo sapiens, UniProt Q96GG9)
Assay: Inhibition of GST-tagged DCN1 (unknown origin)/acetylated-biotin tagged UBC12 (unknown origin) protein-protein interaction incubated for 30 mins by HTRF assay

Sequence of DCN1-like protein 1/NEDD8-conjugating enzyme Ubc12 (Q96GG9 whole entry): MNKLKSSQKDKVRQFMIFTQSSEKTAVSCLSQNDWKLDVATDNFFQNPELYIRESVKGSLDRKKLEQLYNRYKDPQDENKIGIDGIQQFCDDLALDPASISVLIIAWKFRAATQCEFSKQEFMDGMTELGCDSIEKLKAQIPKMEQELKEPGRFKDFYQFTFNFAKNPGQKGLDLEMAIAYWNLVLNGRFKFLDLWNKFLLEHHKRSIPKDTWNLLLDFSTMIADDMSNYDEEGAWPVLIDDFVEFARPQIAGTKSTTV
Sequence of DCN1-like protein 1/NEDD8-conjugating enzyme Ubc12 (P61081 whole entry, further chain): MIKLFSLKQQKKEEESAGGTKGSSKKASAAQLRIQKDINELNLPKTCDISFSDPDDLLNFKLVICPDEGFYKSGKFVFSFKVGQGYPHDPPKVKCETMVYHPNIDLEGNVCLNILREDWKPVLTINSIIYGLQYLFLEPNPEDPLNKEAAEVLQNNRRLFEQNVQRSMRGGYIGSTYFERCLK

Row | SMILES | IC50
1 | COc1ccc(-c2n[nH]c(=S)n2CCC(=O)Nc2ccc(OC)cc2OC)cc1 | 840 nM
2 | O=C(CCn1c(-c2ccccc2)n[nH]c1=S)Nc1cccc(C(F)(F)F)c1 | 15.3 nM
3 | CC(C)(C)c1ccc(O)c(NC(=O)CCn2c(-c3ccc(Cl)cc3)n[nH]c2=S)c1 | 195 nM
4 | O=C(CCn1c(SCC(=O)Nc2ccccc2)nnc1-c1ccc(Cl)cc1)Nc1cccc(C(F)(F)F)c1 | > 20000 nM
5 | O=C(CCn1c(-c2ccc(Br)cc2)n[nH]c1=S)Nc1cccc(C(F)(F)F)c1 | 24.9 nM
6 | O=C(CCn1c(-c2ccc(Cl)cc2)n[nH]c1=O)Nc1cccc(C(F)(F)F)c1 | 7580 nM
7 | O=C(CCn1c(-c2ccc(Cl)cc2)n[nH]c1=S)Nc1cccc(Br)c1 | 22.2 nM
8 | O=C(CCn1c(-c2ccc(O)cc2)n[nH]c1=S)Nc1ccccc1C(F)(F)F | 100 nM
9 | O=C(CCn1c(-c2ccc(Cl)cc2)n[nH]c1=S)Nc1ccc(Br)cc1 | 25.6 nM
10 | O=C(CCn1cnnc1-c1ccc(Cl)cc1)Nc1cccc(C(F)(F)F)c1 | 15800 nM
11 | O=C(CCCn1c(-c2ccc(Cl)cc2)n[nH]c1=S)Nc1cccc(C(F)(F)F)c1 | 45.2 nM
12 | O=C(CCn1c(-c2ccccc2Cl)n[nH]c1=S)Nc1cccc(C(F)(F)F)c1 | 28.8 nM
13 | O=C(CCn1c(-c2ccc(Cl)cc2)n[nH]c1=S)Nc1cc(-c2ccccc2)ccc1O | 330 nM
14 | Cc1cccc2[nH]c(CSc3nnc(-c4ccc(Cl)cc4)n3CCC(=O)Nc3cccc(C(F)(F)F)c3)nc12 | 7110 nM
15 | O=C(CCn1c(-c2ccc(Cl)cc2)n[nH]c1=S)Nc1ccc(F)cc1 | 130 nM
16 | O=C(CCn1c(-c2ccncc2)n[nH]c1=S)Nc1cccc(C(F)(F)F)c1 | 221 nM
17 | COc1ccc(CNC(=O)CCn2c(-c3ccc(OC)cc3)n[nH]c2=S)cc1 | > 20000 nM
18 | COc1ccc(NC(=O)CCn2c(-c3ccc(Cl)cc3)n[nH]c2=S)cc1 | 90.9 nM
19 | O=C(CSc1nnc(-c2ccc(Cl)cc2)n1CCC(=O)Nc1cccc(C(F)(F)F)c1)NC(=O)Nc1ccccc1 | > 20000 nM

Row | SMILES | IC50
20 | COc1ccc(-c2n[nH]c(=S)n2CCC(=O)Nc2cc(C)ccc2O)cc1 | 1460 nM
21 | COc1cccc(NC(=O)CCn2c(-c3ccc(Cl)cc3)n[nH]c2=S)c1 | 77.6 nM
22 | O=C(CCn1c(-c2ccc(Cl)cc2)n[nH]c1=S)NCc1ccoc1 | > 20000 nM
23 | O=C(CCn1c(-c2ccc(Cl)cc2)n[nH]c1=S)Nc1ccc(O)cc1 | > 20000 nM
24 | Cc1ccc(O)c(NC(=O)CCn2c(-c3ccc(Cl)cc3)n[nH]c2=S)c1 | 650 nM
25 | COc1ccc(-c2n[nH]c(=S)n2CCC(=O)Nc2cc(C#N)[nH]n2)cc1 | > 20000 nM
26 | O=C(CCn1c(-c2ccc([N+](=O)[O-])cc2)n[nH]c1=S)Nc1cccc(C(F)(F)F)c1 | 46.2 nM
27 | C#CCNC(=O)CCn1c(-c2ccc(OC)cc2)n[nH]c1=S | > 20000 nM
28 | O=C(CCn1c(-c2ccc(Cl)cc2)n[nH]c1=S)NCCc1c[nH]c2ccccc12 | 2170 nM
29 | CSc1nnc(-c2ccc(Cl)cc2)n1CCC(=O)Nc1cccc(C(F)(F)F)c1 | 1630 nM
30 | COc1ccc(-c2n[nH]c(=S)n2CCC(=O)Nc2ccc(Br)cc2O)cc1 | 209 nM
31 | N#Cc1cc(NC(=O)CCn2c(-c3ccc(Cl)cc3)n[nH]c2=S)n[nH]1 | > 20000 nM
32 | O=C(CCn1c(-c2ccc(Cl)cc2Br)n[nH]c1=S)Nc1cccc(C(F)(F)F)c1 | 5.41 nM
33 | COc1ccc(CNC(=O)CCn2c(-c3ccc(Cl)cc3)n[nH]c2=S)cc1 | > 20000 nM
34 | COc1ccc(-c2n[nH]c(=S)n2CCC(=O)Nc2cccc(C(F)(F)F)c2)cc1 | 14.1 nM
35 | COc1ccc(-c2n[nH]c(=S)n2CCC(=O)NCCc2c[nH]c3ccccc23)cc1 | 2280 nM
36 | O=C(CCn1c(-c2ccc(O)cc2)n[nH]c1=S)Nc1ccc(C(F)(F)F)cc1 | 10.6 nM
37 | O=C(CCn1c(-c2ccc(F)cc2)n[nH]c1=S)Nc1cccc(C(F)(F)F)c1 | 18.9 nM
38 | CC(C)c1cccc(NC(=O)CCn2c(-c3ccc(Cl)cc3)n[nH]c2=S)c1 | 15.7 nM

Row | SMILES | IC50
39 | C#CCNC(=O)CCn1c(-c2ccc(Cl)cc2)n[nH]c1=S | > 20000 nM
40 | COc1ccc(CSc2nnc(-c3ccc(Cl)cc3)n2CCC(=O)Nc2cccc(C(F)(F)F)c2)cc1 | 4110 nM
41 | Cc1ccc(NC(=O)CCn2c(-c3ccc(Cl)cc3)n[nH]c2=S)cc1 | 50.5 nM
42 | CCCCc1ccc(NC(=O)CCn2c(-c3ccc(Cl)cc3)n[nH]c2=S)cc1 | 12.3 nM
43 | O=C(CCn1c(-c2ccc(Cl)cc2)n[nH]c1=S)Nc1ccc(Cl)cc1 | 69.4 nM
44 | O=C(CCn1c(-c2ccc(O)cc2)n[nH]c1=S)NCc1cccc(C(F)(F)F)c1 | 43.1 nM
45 | O=C(CCn1c(-c2c[nH]c3ccccc23)n[nH]c1=S)Nc1cccc(C(F)(F)F)c1 | 9.39 nM
46 | COc1ccc(-c2n[nH]c(=S)n2CCC(=O)Nc2cc(C(C)(C)C)ccc2O)cc1 | 2320 nM
47 | CC(C)(C)c1ccc(NC(=O)CCn2c(-c3ccc(Cl)cc3)n[nH]c2=S)cc1 | 8.77 nM
48 | CC(C)(C)c1ccc(-c2n[nH]c(=S)n2CCC(=O)Nc2cccc(C(F)(F)F)c2)cc1 | 7.85 nM
49 | O=C(Cn1c(-c2ccc(Cl)cc2)n[nH]c1=S)Nc1cccc(C(F)(F)F)c1 | 27.4 nM
50 | CC(C)c1ccc(NC(=O)CCn2c(-c3ccc(Cl)cc3)n[nH]c2=S)cc1 | 12.8 nM
51 | O=C(CCn1c(-c2ccc(Cl)cc2)n[nH]c1=S)Nc1ccccc1 | 545 nM
52 | CCSc1nnc(-c2ccc(Cl)cc2)n1CCC(=O)Nc1cccc(C(F)(F)F)c1 | 2200 nM
53 | COc1ccc(-c2n[nH]c(=S)n2CCC(=O)NCc2ccoc2)cc1 | > 20000 nM
54 | COc1ccc(-c2n[nH]c(=S)n2CCC(=O)Nc2cc(-c3ccccc3)ccc2O)cc1 | 1110 nM
55 | COc1ccccc1NC(=O)CCn1c(-c2ccc(Cl)cc2)n[nH]c1=S | 884 nM
56 | O=C(CCn1c(-c2cccc(Cl)c2)n[nH]c1=S)Nc1cccc(C(F)(F)F)c1 | 19.9 nM
57 | Cc1ccc(-c2n[nH]c(=S)n2CCC(=O)Nc2cccc(C(F)(F)F)c2)cc1 | 9.42 nM

System: not listed separately
Assay: Hepatotoxicity in human L02 cells assessed as reduction in cell viability by MTT assay

Row | SMILES | IC50
58 | O=C(CCn1c(-c2ccccc2)n[nH]c1=S)Nc1cccc(C(F)(F)F)c1 | > 100 µg/mL
59 | COc1ccc(-c2n[nH]c(=S)n2CCC(=O)Nc2cccc(C(F)(F)F)c2)cc1 | > 100 µg/mL
60 | O=C(CCn1c(-c2ccc(O)cc2)n[nH]c1=S)Nc1ccc(C(F)(F)F)cc1 | > 100 µg/mL
61 | O=C(CCn1c(-c2ccc(F)cc2)n[nH]c1=S)Nc1cccc(C(F)(F)F)c1 | > 100 µg/mL
62 | CC(C)c1cccc(NC(=O)CCn2c(-c3ccc(Cl)cc3)n[nH]c2=S)c1 | > 100 µg/mL
63 | CCCCc1ccc(NC(=O)CCn2c(-c3ccc(Cl)cc3)n[nH]c2=S)cc1 | > 100 µg/mL
64 | O=C(CCn1c(-c2c[nH]c3ccccc23)n[nH]c1=S)Nc1cccc(C(F)(F)F)c1 | > 100 µg/mL
65 | CC(C)(C)c1ccc(NC(=O)CCn2c(-c3ccc(Cl)cc3)n[nH]c2=S)cc1 | > 100 µg/mL
66 | CC(C)c1ccc(NC(=O)CCn2c(-c3ccc(Cl)cc3)n[nH]c2=S)cc1 | > 100 µg/mL
67 | O=C(CCn1c(-c2cccc(Cl)c2)n[nH]c1=S)Nc1cccc(C(F)(F)F)c1 | > 100 µg/mL
68 | Cc1ccc(-c2n[nH]c(=S)n2CCC(=O)Nc2cccc(C(F)(F)F)c2)cc1 | > 100 µg/mL

Target: not listed separately
Assay: Inhibition of GST-tagged DCN2 (unknown origin)/acetylated-biotin tagged UBC12 (unknown origin) protein-protein interaction assessed as inhibition constant incubated for 30 mins by HTRF assay

Row | SMILES | Ki
69 | C#CCSc1nc(Sc2nccs2)c(C#N)c(-c2ccc(C)cc2)n1 | 66.2 nM
70 | COc1cc(-c2nc(SCc3ccc(Cl)cc3)nc(Sc3nnnn3C)c2C#N)cc(OC)c1OC | 18.8 nM

Target: not listed separately
Assay: Inhibition of GST-tagged DCN3 (unknown origin)/acetylated-biotin tagged UBC12 (unknown origin) protein-protein interaction assessed as inhibition constant incubated for 30 mins by HTRF assay

Row | SMILES | Ki
71 | C#CCSc1nc(Sc2nccs2)c(C#N)c(-c2ccc(C)cc2)n1 | 592 nM
72 | COc1cc(-c2nc(SCc3ccc(Cl)cc3)nc(Sc3nnnn3C)c2C#N)cc(OC)c1OC | 385 nM

Target: not listed separately
Assay: Inhibition of GST-tagged DCN4 (unknown origin)/acetylated-biotin tagged UBC12 (unknown origin) protein-protein interaction assessed as inhibition constant incubated for 30 mins by HTRF assay

Row | SMILES | Ki
73 | C#CCSc1nc(Sc2nccs2)c(C#N)c(-c2ccc(C)cc2)n1 | 810 nM
74 | COc1cc(-c2nc(SCc3ccc(Cl)cc3)nc(Sc3nnnn3C)c2C#N)cc(OC)c1OC | > 20000 nM

Target: not listed separately
Assay: Inhibition of GST-tagged DCN5 (unknown origin)/acetylated-biotin tagged UBC12 (unknown origin) protein-protein interaction assessed as inhibition constant incubated for 30 mins by HTRF assay

Row | SMILES | Ki
75 | C#CCSc1nc(Sc2nccs2)c(C#N)c(-c2ccc(C)cc2)n1 | 2140 nM
76 | COc1cc(-c2nc(SCc3ccc(Cl)cc3)nc(Sc3nnnn3C)c2C#N)cc(OC)c1OC | > 20000 nM

Target: DCN1-like protein 1 (Homo sapiens, UniProt Q96GG9)
Assay: Inhibition of DCN1 (unknown origin) assessed as inhibition constant

Sequence of DCN1-like protein 1 (Q96GG9 whole entry): as the sequence (Q96GG9 whole entry) above

Row | SMILES | Ki
77 | C=C(CN(C)C)C(=O)NC[C@@H](NC(=O)[C@H](Cc1nc2ccc(C(C)C)cc2s1)NC(=O)CC)C1CCCCC1 | < 1 nM
